Measured values published in ChEMBL document CHEMBL4396916, “Novel potent substituted 4-amino-2-thiopyrimidines as dual VEGFR-2 and BRAF kinase inhibitors” (Eur J Med Chem, 2019).

Tests used:
[1] = target: Vascular endothelial growth factor receptor 2 (Homo sapiens, UniProt P35968); test: Inhibition of human N-terminal GST tagged VEGFR-2 expressed in baculovirus infected Sf9 cells using poly (Glu,Tyr) 4:1 as substrate in presence of ATP by Kinase-Glo luminescence assay
[2] = test system: MCF7; test: Cytotoxicity against human MCF7 cells expressing VEGFR2 and wild type BRAF measured after 48 hrs by sulforhodamine B assay; assay type: functional, cell-based; conditions: MCF7, 48 h
[3] = test system: MCF7; test: Inhibition of VEGFR2 level in human MCF7 cells at 10 uM measured after 48 hrs by ELISA relative to control; assay type: functional; conditions: MCF7, 48 h
[4] = target: Serine/threonine-protein kinase B-raf (Homo sapiens, UniProt P15056); test: Inhibition of human wild type BRAF by Kinase-Glo luminescence assay
Chain of Serine/threonine-protein kinase B-raf (P15056 whole entry): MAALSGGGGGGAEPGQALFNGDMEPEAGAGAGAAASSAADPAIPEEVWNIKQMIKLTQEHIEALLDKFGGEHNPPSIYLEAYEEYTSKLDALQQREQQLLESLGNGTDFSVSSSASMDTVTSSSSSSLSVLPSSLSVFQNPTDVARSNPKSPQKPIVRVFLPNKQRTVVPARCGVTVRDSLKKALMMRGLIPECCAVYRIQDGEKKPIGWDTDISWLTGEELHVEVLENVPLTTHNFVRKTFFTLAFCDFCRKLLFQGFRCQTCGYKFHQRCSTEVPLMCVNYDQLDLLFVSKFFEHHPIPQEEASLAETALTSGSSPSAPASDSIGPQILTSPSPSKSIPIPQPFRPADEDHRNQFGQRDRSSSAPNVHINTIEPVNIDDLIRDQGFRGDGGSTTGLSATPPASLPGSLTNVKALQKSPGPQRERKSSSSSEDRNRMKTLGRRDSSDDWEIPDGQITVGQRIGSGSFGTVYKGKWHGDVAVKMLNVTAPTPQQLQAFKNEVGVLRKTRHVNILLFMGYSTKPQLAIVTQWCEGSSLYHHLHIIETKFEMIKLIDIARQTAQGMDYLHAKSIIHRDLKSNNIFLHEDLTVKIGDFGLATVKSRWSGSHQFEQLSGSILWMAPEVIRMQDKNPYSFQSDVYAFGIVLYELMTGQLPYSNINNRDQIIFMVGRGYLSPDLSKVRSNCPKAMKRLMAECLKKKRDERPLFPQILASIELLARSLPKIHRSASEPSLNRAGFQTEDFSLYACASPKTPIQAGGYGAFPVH

[5] = test system: T47D; test: Cytotoxicity against human T47D cells expressing wild type BRAF measured after 48 hrs by sulforhodamine B assay; assay type: functional, cell-based
[6] = test system: NCI/ADR-RES; test: Growth inhibition of human NCI/ADR-RES cells at 10 uM incubated for 48 hrs by sulforhodamine B assay relative to control; assay type: functional; conditions: read-out: GI
[7] = test system: CCRF-CEM; test: Growth inhibition of human CCRF-CEM cells at 10 uM incubated for 48 hrs by sulforhodamine B assay relative to control; assay type: functional; conditions: read-out: GI
[8] = test system: T47D; test: Growth inhibition of human T47D cells at 10 uM incubated for 48 hrs by sulforhodamine B assay relative to control; assay type: functional; conditions: read-out: GI
[9] = test system: NCI-H522; test: Growth inhibition of human NCI-H522 cells at 10 uM incubated for 48 hrs by sulforhodamine B assay relative to control; assay type: functional; conditions: NCI-H522, 48 h, read-out: GI
[10] = test system: CAKI-1; test: Growth inhibition of human Caki1 cells at 10 uM incubated for 48 hrs by sulforhodamine B assay relative to control; assay type: functional; conditions: CAKI-1, 48 h, read-out: GI
[11] = test system: A549; test: Growth inhibition of human A549/ATCC cells at 10 uM incubated for 48 hrs by sulforhodamine B assay relative to control; assay type: functional; conditions: A549, 48 h, read-out: GI
[12] = test system: NCI-H226; test: Growth inhibition of human NCI-H226 cells at 10 uM incubated for 48 hrs by sulforhodamine B assay relative to control; assay type: functional; conditions: NCI-H226, 48 h, read-out: GI
[13] = test system: SK-MEL-5; test: Growth inhibition of human SK-MEL-5 cells at 10 uM incubated for 48 hrs by sulforhodamine B assay relative to control; assay type: functional; conditions: SK-MEL-5, 48 h, read-out: GI
[14] = test system: EKVX; test: Growth inhibition of human EKVX cells at 10 uM incubated for 48 hrs by sulforhodamine B assay relative to control; assay type: functional; conditions: read-out: GI
[15] = test system: SF-295; test: Growth inhibition of human SF295 cells at 10 uM incubated for 48 hrs by sulforhodamine B assay relative to control; assay type: functional; conditions: SF-295, 48 h, read-out: GI
[16] = test system: UO-31; test: Growth inhibition of human UO31 cells at 10 uM incubated for 48 hrs by sulforhodamine B assay relative to control; assay type: functional; conditions: UO-31, 48 h, read-out: GI
[17] = test system: ACHN; test: Growth inhibition of human ACHN cells at 10 uM incubated for 48 hrs by sulforhodamine B assay relative to control; assay type: functional; conditions: read-out: GI
[18] = test system: A498; test: Growth inhibition of human A498 cells at 10 uM incubated for 48 hrs by sulforhodamine B assay relative to control; assay type: functional; conditions: A498, 48 h, read-out: GI
[19] = test system: HCT-15; test: Growth inhibition of human HCT15 cells at 10 uM incubated for 48 hrs by sulforhodamine B assay relative to control; assay type: functional; conditions: HCT-15, 48 h, read-out: GI
[20] = test system: OVCAR-8; test: Growth inhibition of human OVCAR8 cells at 10 uM incubated for 48 hrs by sulforhodamine B assay relative to control; assay type: functional; conditions: OVCAR-8, 48 h, read-out: GI
[21] = test system: OVCAR-4; test: Growth inhibition of human OVCAR4 cells at 10 uM incubated for 48 hrs by sulforhodamine B assay relative to control; assay type: functional; conditions: OVCAR-4, 48 h, read-out: GI
[22] = test system: MDA-MB-468; test: Growth inhibition of human MDA-MB-468 cells at 10 uM incubated for 48 hrs by sulforhodamine B assay relative to control; assay type: functional; conditions: MDA-MB-468, 48 h, read-out: GI
[23] = test system: PC-3; test: Growth inhibition of human PC3 cells at 10 uM incubated for 48 hrs by sulforhodamine B assay relative to control; assay type: functional; conditions: PC-3, 48 h, read-out: GI
[24] = test system: MOLT-4; test: Growth inhibition of human MOLT4 cells at 10 uM incubated for 48 hrs by sulforhodamine B assay relative to control; assay type: functional; conditions: MOLT-4, 48 h, read-out: GI
[25] = test system: NCI-H23; test: Growth inhibition of human NCI-H23 cells at 10 uM incubated for 48 hrs by sulforhodamine B assay relative to control; assay type: functional; conditions: NCI-H23, 48 h, read-out: GI
[26] = test system: RPMI-8226; test: Growth inhibition of human RPMI8226 cells at 10 uM incubated for 48 hrs by sulforhodamine B assay relative to control; assay type: functional; conditions: RPMI-8226, 48 h, read-out: GI
[27] = test system: MCF7; test: Growth inhibition of human MCF7 cells at 10 uM incubated for 48 hrs by sulforhodamine B assay relative to control; assay type: functional; conditions: MCF7, 48 h, read-out: GI
[28] = test system: HOP-62; test: Growth inhibition of human HOP62 cells at 10 uM incubated for 48 hrs by sulforhodamine B assay relative to control; assay type: functional; conditions: HOP-62, 48 h, read-out: GI
[29] = test system: KM12; test: Growth inhibition of human KM12 cells at 10 uM incubated for 48 hrs by sulforhodamine B assay relative to control; assay type: functional; conditions: KM12, 48 h, read-out: GI
[30] = test system: UACC-62; test: Growth inhibition of human UACC62 cells at 10 uM incubated for 48 hrs by sulforhodamine B assay relative to control; assay type: functional; conditions: UACC-62, 48 h, read-out: GI
[31] = test system: K562; test: Growth inhibition of human K562 cells at 10 uM incubated for 48 hrs by sulforhodamine B assay relative to control; assay type: functional; conditions: K562, 48 h, read-out: GI
[32] = test system: MDA-MB-231; test: Growth inhibition of human MDA-MB-231 cells at 10 uM incubated for 48 hrs by sulforhodamine B assay relative to control; assay type: functional; conditions: MDA-MB-231, 48 h, read-out: GI
[33] = test system: SNB-75; test: Growth inhibition of human SNB75 cells at 10 uM incubated for 48 hrs by sulforhodamine B assay relative to control; assay type: functional; conditions: SNB-75, 48 h, read-out: GI
[34] = test system: HOP-92; test: Growth inhibition of human HOP92 cells at 10 uM incubated for 48 hrs by sulforhodamine B assay relative to control; assay type: functional; conditions: HOP-92, 48 h, read-out: GI
[35] = test system: Hs-578T; test: Growth inhibition of human Hs578T cells at 10 uM incubated for 48 hrs by sulforhodamine B assay relative to control; assay type: functional; conditions: read-out: GI
[36] = test system: Malme-3M; test: Growth inhibition of human MALME-3M cells at 10 uM incubated for 48 hrs by sulforhodamine B assay relative to control; assay type: functional; conditions: read-out: GI
[37] = test system: IGROV-1; test: Growth inhibition of human IGROV1 cells at 10 uM incubated for 48 hrs by sulforhodamine B assay relative to control; assay type: functional; conditions: IGROV-1, 48 h, read-out: GI

Chain of Vascular endothelial growth factor receptor 2 (P35968 whole entry): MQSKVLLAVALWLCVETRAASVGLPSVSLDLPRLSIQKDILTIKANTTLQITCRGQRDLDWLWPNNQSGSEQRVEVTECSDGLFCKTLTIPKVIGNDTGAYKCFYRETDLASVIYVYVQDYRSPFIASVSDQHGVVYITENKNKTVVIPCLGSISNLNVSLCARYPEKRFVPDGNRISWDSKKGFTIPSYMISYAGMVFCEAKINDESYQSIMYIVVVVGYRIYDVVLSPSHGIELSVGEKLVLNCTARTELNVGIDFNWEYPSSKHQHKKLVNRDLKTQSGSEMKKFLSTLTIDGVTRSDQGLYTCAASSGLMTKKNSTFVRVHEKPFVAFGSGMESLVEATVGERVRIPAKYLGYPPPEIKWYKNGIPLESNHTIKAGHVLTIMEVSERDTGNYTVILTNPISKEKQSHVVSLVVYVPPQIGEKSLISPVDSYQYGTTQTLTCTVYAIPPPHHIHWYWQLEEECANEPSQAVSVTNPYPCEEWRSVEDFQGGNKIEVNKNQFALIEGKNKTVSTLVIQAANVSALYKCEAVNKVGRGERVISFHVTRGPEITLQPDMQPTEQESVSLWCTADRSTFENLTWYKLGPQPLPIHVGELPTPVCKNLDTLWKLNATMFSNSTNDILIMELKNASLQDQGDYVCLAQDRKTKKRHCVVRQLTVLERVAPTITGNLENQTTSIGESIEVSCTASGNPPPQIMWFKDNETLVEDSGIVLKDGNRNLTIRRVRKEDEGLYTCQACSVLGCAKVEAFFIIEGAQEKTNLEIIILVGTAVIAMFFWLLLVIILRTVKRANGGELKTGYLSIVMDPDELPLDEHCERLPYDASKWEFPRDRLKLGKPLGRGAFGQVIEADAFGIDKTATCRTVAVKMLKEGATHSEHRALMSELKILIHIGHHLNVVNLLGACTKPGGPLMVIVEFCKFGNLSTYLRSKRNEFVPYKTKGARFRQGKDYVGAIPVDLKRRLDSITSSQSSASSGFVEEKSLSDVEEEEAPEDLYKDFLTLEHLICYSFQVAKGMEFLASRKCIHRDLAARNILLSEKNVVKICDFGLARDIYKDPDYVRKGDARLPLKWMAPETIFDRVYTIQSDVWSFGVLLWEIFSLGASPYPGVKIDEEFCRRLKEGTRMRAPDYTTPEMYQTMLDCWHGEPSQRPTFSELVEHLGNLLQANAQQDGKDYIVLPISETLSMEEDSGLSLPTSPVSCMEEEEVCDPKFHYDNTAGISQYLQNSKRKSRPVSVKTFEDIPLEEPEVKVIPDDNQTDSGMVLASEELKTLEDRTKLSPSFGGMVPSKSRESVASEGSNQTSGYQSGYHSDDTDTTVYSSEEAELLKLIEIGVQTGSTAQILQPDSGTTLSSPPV

CCOC(=O)c1ccc(Nc2ccnc(SCC(=O)c3ccc(-c4ccccc4)cc3)n2)cc1
IC50 [1]: 0.34 µM
IC50 [2]: 68.5 µM

O=C(O)c1ccc(Nc2ccnc(SCC(=O)c3ccc(Cl)cc3)n2)cc1
IC50 [1]: 0.17 µM
IC50 [2]: 37.2 µM
inhibition at 10 µM [3]: 35%
IC50 [4]: 0.37 µM

CCOC(=O)c1ccc(Nc2ccnc(SCC(=O)c3ccc(OC)cc3)n2)cc1
IC50 [1]: 0.19 µM
IC50 [5]: 43.4 µM
IC50 [2]: 32.1 µM
inhibition at 10 µM [3]: 12%
IC50 [4]: 0.41 µM

N#Cc1ccc(C(=O)CSc2nccc(Nc3ccc(C(=O)O)cc3)n2)cc1
IC50 [1]: 0.12 µM
IC50 [2]: 17.2 µM
inhibition at 10 µM [3]: 77%
IC50 [4]: 1.7 µM

CC(=O)c1ccc(Nc2ccnc(SCC(=O)c3ccc(Cl)cc3)n2)cc1
IC50 [1]: 0.22 µM
inhibition of growth at 10 µM [6]: 46%
inhibition of growth at 10 µM [7]: 29%
inhibition of growth at 10 µM [8]: 71%
inhibition of growth at 10 µM [9]: 29%
inhibition of growth at 10 µM [10]: 21%
inhibition of growth at 10 µM [11]: 20%
inhibition of growth at 10 µM [12]: 21%
inhibition of growth at 10 µM [13]: 65%
IC50 [5]: 14.5 µM
IC50 [2]: 55.2 µM
inhibition of growth at 10 µM [14]: 10%
inhibition of growth at 10 µM [15]: 14%
inhibition of growth at 10 µM [16]: 33%
inhibition of growth at 10 µM [17]: 11%
inhibition of growth at 10 µM [18]: 19%
inhibition of growth at 10 µM [19]: 14%
inhibition of growth at 10 µM [20]: 29%
inhibition of growth at 10 µM [21]: 18%
inhibition of growth at 10 µM [22]: 27%
inhibition of growth at 10 µM [23]: 30%
inhibition of growth at 10 µM [24]: 33%
inhibition of growth at 10 µM [25]: 13%
inhibition of growth at 10 µM [26]: 46%
inhibition of growth at 10 µM [27]: 19%
IC50 [4]: 0.64 µM
inhibition of growth at 10 µM [28]: 14%
inhibition of growth at 10 µM [29]: 11%
inhibition of growth at 10 µM [30]: 34%
inhibition of growth at 10 µM [31]: 19%

O=C(O)c1ccc(Nc2ccnc(SCC(=O)c3ccc(C(F)(F)F)cc3)n2)cc1
IC50 [1]: > 10 µM
inhibition of growth at 10 µM [32]: 24%
inhibition of growth at 10 µM [9]: 15%
inhibition of growth at 10 µM [10]: 19%
inhibition of growth at 10 µM [11]: 10%
inhibition of growth at 10 µM [12]: 13%
inhibition of growth at 10 µM [33]: 28%
IC50 [2]: 67.5 µM
inhibition of growth at 10 µM [14]: 10%
inhibition of growth at 10 µM [16]: 32%
inhibition of growth at 10 µM [18]: 39%
inhibition of growth at 10 µM [34]: 16%
inhibition of growth at 10 µM [23]: 12%
inhibition of growth at 10 µM [35]: 10%
inhibition of growth at 10 µM [36]: 30%
inhibition of growth at 10 µM [37]: 13%
inhibition of growth at 10 µM [30]: 12%

N#Cc1ccc(C(=O)CSc2nccc(Nc3ccc(N4CCOCC4)cc3)n2)cc1
IC50 [1]: 1.1 µM
IC50 [2]: 69 µM

O=C(O)c1ccc(Nc2ccnc(SCC(=O)c3ccc(Br)cc3)n2)cc1
IC50 [1]: > 10 µM
IC50 [2]: 81.2 µM

COc1ccc(C(=O)CSc2nccc(Nc3ccc(C(C)=O)cc3)n2)cc1
IC50 [1]: 0.49 µM
IC50 [2]: 80.3 µM
